In patent publication US7759101B2, “Ginsenoside glycosidases hydrolyzing ginsenoside sugar moieties and uses thereof” (priority 2000, dated 2010):

Test system: ginsenoside glycosidases from A. niger
Assay: Hydrolysis of ginsenosides with crude ginsenoside glycosidases from A. niger, products measured by TLC
Format: biochemical, Aspergillus niger
Conditions: Rb1 0.5%
Procedure, shortened: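 Crude enzyme from A. niger culture (1% ginseng extract, 3% wheat bran, 30° C., 54 h), 65% ammonium sulfate precipitate dialysed into 0.01 M acetate pH 5. Ginsenosides (100 mg; Rg3 10 mg) in 10 ml buffer plus 10 ml enzyme, 30° C., 18 h; stopped with n-butanol, products analysed by silica TLC.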

## CC(C)=CCC[C@](C)(O[C@@H]1O[C@H](CO[C@@H]2O[C@H](CO)[C@@H](O)[C@H](O)[C@H]2O)[C@@H](O)[C@H](O)[C@H]1O)[C@H]1CC[C@]2(C)[C@@H]1[C@H](O)C[C@@H]1[C@@]3(C)CC[C@H](O[C@@H]4O[C@H](CO)[C@@H](O)[C@H](O)[C@H]4O[C@@H]4O[C@H](CO)[C@@H](O)[C@H](O)[C@H]4O)C(C)(C)[C@@H]3CC[C@]12C [Rb1, ginsenoside Rb1]
20° C., pH 5.0, 18 hours
  Percentage of C—K in the reaction product: 10%
  Percentage of F2 in the reaction product: 15%
  Percentage of Rb1 in the reaction product: 25%
  Percentage of Rd in the reaction product: 50%
30° C., pH 5.0, 18 hours
  Percentage of C—K in the reaction product: 16%
  Percentage of F2 in the reaction product: 63%
  Percentage of Rb1 in the reaction product: 1%
  Percentage of Rd in the reaction product: 10%
  Percentage of Rh2 in the reaction product: 5%
  Percentage of aglycone in the reaction product: 5%
40° C., pH 5.0, 18 hours
  Percentage of C—K in the reaction product: 34%
  Percentage of F2 in the reaction product: 50%
  Percentage of Rd in the reaction product: 5%
  Percentage of Rh2 in the reaction product: 6%
  Percentage of aglycone in the reaction product: 5%
50° C., pH 5.0, 18 hours
  Percentage of C—K in the reaction product: 42%
  Percentage of F2 in the reaction product: 40%
  Percentage of Rd in the reaction product: 5%
  Percentage of Rh2 in the reaction product: 4%
  Percentage of aglycone in the reaction product: 4%
60° C., pH 5.0, 18 hours
  Percentage of C—K in the reaction product: 6%
  Percentage of F2 in the reaction product: 10%
  Percentage of Rb1 in the reaction product: 30%
  Percentage of Rd in the reaction product: 50%
  Percentage of Rh2 in the reaction product: 2%
  Percentage of aglycone in the reaction product: 2%
70° C., pH 5.0, 18 hours
  Percentage of Rb1 in the reaction product: 82%
  Percentage of Rd in the reaction product: 18%
Ca^++ 50 mM, pH 5.0, 30°C.
  Percentage of C—K in the reaction product: 20%
  Percentage of F2 in the reaction product: 65%
  Percentage of Rd in the reaction product: 4%
  Percentage of Rh2 in the reaction product: 7%
  Percentage of aglycone in the reaction product: 4%
Ca^++ 100 mM, pH 5.0, 30°C.
  Percentage of C—K in the reaction product: 21%
  Percentage of F2 in the reaction product: 67%
  Percentage of Rh2 in the reaction product: 7%
  Percentage of aglycone in the reaction product: 5%
Cu^++ 100 mM, pH 5.0, 30°C.
  Percentage of C—K in the reaction product: 10%
  Percentage of F2 in the reaction product: 30%
  Percentage of Rb1 in the reaction product: 30%
  Percentage of Rd in the reaction product: 30%
Mg^++ 50 mM, pH 5.0, 30°C.
  Percentage of C—K in the reaction product: 17%
  Percentage of F2 in the reaction product: 65%
  Percentage of Rd in the reaction product: 6%
  Percentage of Rh2 in the reaction product: 7%
  Percentage of aglycone in the reaction product: 5%
Mg^++ 100 mM, pH 5.0, 30°C.
  Percentage of C—K in the reaction product: 21%
  Percentage of F2 in the reaction product: 67%
  Percentage of Rh2 in the reaction product: 8%
  Percentage of aglycone in the reaction product: 4%
No ion, pH 5.0, 30°C.
  Percentage of C—K in the reaction product: 16%
  Percentage of F2 in the reaction product: 63%
  Percentage of Rd in the reaction product: 10%
  Percentage of Rh2 in the reaction product: 5%
  Percentage of aglycone in the reaction product: 2%
Pb^++ 100 mM, pH 5.0, 30°C.
  Percentage of C—K in the reaction product: 1%
  Percentage of F2 in the reaction product: 9%
  Percentage of Rb1 in the reaction product: 70%
  Percentage of Rd in the reaction product: 20%
pH 3.0, 30° C., 18 hours
  Percentage of C—K in the reaction product: 40%
  Percentage of F2 in the reaction product: 30%
  Percentage of Rb1 in the reaction product: 2%
  Percentage of Rd in the reaction product: 20%
  Percentage of Rh2 in the reaction product: 8%
  Percentage of aglycone in the reaction product: 10%
pH 4.0, 30° C., 18 hours
  Percentage of C—K in the reaction product: 39%
  Percentage of F2 in the reaction product: 43%
  Percentage of Rb1 in the reaction product: 1%
  Percentage of Rd in the reaction product: 10%
  Percentage of Rh2 in the reaction product: 7%
  Percentage of aglycone in the reaction product: 5%
pH 5.0, 30° C., 18 hours
  Percentage of C—K in the reaction product: 16%
  Percentage of F2 in the reaction product: 63%
  Percentage of Rd in the reaction product: 10%
